According to ChEMBL document CHEMBL1153960, “Syntheses of novel high affinity ligands for opioid receptors” (Bioorg Med Chem Lett, 2009):

Assays:
[1] = target: T1, Kappa-type opioid receptor (Homo sapiens, UniProt P41145); assay: Displacement of [3H]U69,593 from human kappa opioid receptor expressed in CHO cells after 60 mins by scintillation counting
[2] = target: T1, Kappa-type opioid receptor; assay: Antagonist activity against human kappa opioid receptor expressed in CHO cells assessed as inhibition of U50488-stimulated [35S]GTPgammaS binding
Mu-type opioid receptor [3] = target: T2, Mu-type opioid receptor (Homo sapiens, UniProt P35372); assay: biochemical
T2 sequence (P35372 whole entry): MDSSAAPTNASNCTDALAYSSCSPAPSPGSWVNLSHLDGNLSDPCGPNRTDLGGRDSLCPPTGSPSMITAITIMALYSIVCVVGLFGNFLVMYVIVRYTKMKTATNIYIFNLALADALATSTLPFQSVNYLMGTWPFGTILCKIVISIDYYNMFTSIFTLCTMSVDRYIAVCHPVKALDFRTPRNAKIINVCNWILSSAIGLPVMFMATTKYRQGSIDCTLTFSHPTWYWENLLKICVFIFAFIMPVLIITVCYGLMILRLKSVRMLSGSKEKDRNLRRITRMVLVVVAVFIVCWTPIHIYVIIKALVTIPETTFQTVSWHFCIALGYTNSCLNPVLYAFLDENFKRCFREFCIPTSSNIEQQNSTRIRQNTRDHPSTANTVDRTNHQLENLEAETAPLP

[4] = target: T3, Delta-type opioid receptor (Homo sapiens, UniProt P41143); assay: biochemical
T3 sequence (P41143 whole entry): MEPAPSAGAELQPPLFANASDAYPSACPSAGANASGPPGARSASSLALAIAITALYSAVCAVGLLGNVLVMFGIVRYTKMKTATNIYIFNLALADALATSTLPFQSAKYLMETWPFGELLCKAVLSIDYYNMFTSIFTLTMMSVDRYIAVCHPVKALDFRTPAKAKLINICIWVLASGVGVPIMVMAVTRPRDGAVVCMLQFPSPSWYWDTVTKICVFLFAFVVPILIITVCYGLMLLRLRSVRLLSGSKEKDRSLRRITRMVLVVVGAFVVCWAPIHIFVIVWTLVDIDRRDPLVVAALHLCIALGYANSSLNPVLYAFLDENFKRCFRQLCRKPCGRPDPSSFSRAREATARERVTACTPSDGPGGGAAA

[5] = target: T3, Delta-type opioid receptor; assay: biochemical; remark: listed apart in the source
Mu-type opioid receptor [6] = target: T2, Mu-type opioid receptor; assay: biochemical; remark: listed apart in the source
[7] = target: T1, Kappa-type opioid receptor; assay: Agonist activity at human kappa opioid receptor expressed in CHO cells assessed as stimulation of [35S]GTPgammaS binding
[8] = target: T3, Delta-type opioid receptor; assay: biochemical; remark: listed apart in the source
Description: Agonist activity at human delta opioid receptor expressed in CHO cells assessed as stimulation of [35S]GTPgammaS binding

[9] = target: T1, Kappa-type opioid receptor; conditions: CHO, 10 uM
Mu-type opioid receptor [10] = target: T2, Mu-type opioid receptor; assay: biochemical; remark: listed apart in the source
Description: Agonist activity at human mu opioid receptor expressed in CHO cells assessed as stimulation of [35S]GTPgammaS binding

Mu-type opioid receptor [11] = target: T2, Mu-type opioid receptor; conditions: CHO, 10 uM

T1 sequence (P41145 whole entry): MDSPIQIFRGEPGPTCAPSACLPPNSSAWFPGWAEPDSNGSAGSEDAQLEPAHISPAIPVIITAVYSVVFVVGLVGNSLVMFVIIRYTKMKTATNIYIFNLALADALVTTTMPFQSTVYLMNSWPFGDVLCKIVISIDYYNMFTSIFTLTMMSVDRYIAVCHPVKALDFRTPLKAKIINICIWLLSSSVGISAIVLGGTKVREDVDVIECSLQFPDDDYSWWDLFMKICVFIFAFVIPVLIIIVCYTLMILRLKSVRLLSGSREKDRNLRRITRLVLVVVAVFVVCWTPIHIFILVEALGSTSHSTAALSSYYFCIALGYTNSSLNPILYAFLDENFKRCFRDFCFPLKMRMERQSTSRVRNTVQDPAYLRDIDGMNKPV

SMILES | Ki [1] [nM] | Ki (Mu-type opioid receptor [3]) [nM] | Ki [4] [nM] | IC50 [5] [nM] | IC50 (Mu-type opioid receptor [6]) [nM] | further results
NC(=O)c1ccc2c(c1O)[C@]13CCN(CC4CC4)[C@H](C2)[C@]1(O)Cc1c([nH]c2ccccc12)C3 | 0.81 | 0.51 | 0.025 | 0.08 |  | IC50 [2]: 28 nM
NC(=O)c1ccc2c3c1O[C@H]1CCC[C@@]4(O)[C@@H](C2)N(CC2CC2)CC[C@]314 | 16 | 2.5 | 630 |  | 54 | 
NC(=O)c1ccc2c(c1O)[C@]13CCN(CC4CC4)[C@H](C2)[C@]1(O)CCC(=O)C3 |  |  |  | 6.9 | 0.88 | EC50 [7]: 3.3 nM; IC50 [2]: 38 nM; EC50 [8]: 1.8 nM
NC(=O)c1ccc2c(c1O)[C@]13CCN(CC4CCC4)[C@H](C2)[C@]1(O)CC[C@@H](O)C3 |  |  |  | 130 |  | Imax [9]: 25%; EC50 [8]: 3.7 nM
NC(=O)c1ccc2c3c1O[C@H]1C(=O)CC[C@@]4(O)[C@@H](C2)N(CC2CC2)CC[C@]314 |  |  |  |  | 270 | EC50 (Mu-type opioid receptor [10]): 4.9 nM
CN1CC[C@]23CC(=O)CC[C@H]2[C@H]1Cc1ccc(C(N)=O)c(O)c13 | 2.3 | 0.3 | 8.3 |  |  | EC50 [7]: 3.9 nM; EC50 (Mu-type opioid receptor [10]): 1.6 nM
C[N+]1(CC2CC2)CC[C@]23c4c5ccc(O)c4O[C@H]2C(=O)CC[C@@]3(O)[C@H]1C5 (stereo partly specified) [NALTREXONE METHIODIDE] |  |  |  |  | 170 | EC50 [7]: 9 nM; Imax [9]: 60%
CN1CC[C@]23c4c5ccc(C(N)=O)c4O[C@H]2C(=O)CC[C@H]3[C@H]1C5 |  | 1.2 | 260 |  |  | EC50 (Mu-type opioid receptor [10]): 110 nM
NC(=O)c1ccc2c3c1O[C@H]1[C@@H](O)CC[C@@]4(O)[C@@H](C2)N(CC2CCC2)CC[C@]314 |  |  |  |  |  | Imax (Mu-type opioid receptor [11]): 56%
NC(=O)c1ccc2c3c1O[C@H]1c4[nH]c5ccccc5c4C[C@@]4(O)[C@@H](C2)N(CC2CC2)CC[C@]314 | 47 | 46 | 0.3 | 0.77 |  | 
NC(=O)c1ccc2c(c1O)[C@@]13CCCC[C@@]1(O)[C@@H](C2)N(CC1CC1)CC3 |  |  |  | 5.8 |  | EC50 [7]: 2.3 nM; IC50 [2]: 57 nM
Oc1ccc2c3c1O[C@H]1CCC[C@@]4(O)[C@@H](C2)N(CC2CC2)CC[C@]314 | 0.24 | 0.24 | 79 |  | 4.4 | IC50 [2]: 13 nM
NC(=O)c1ccc2c(c1O)[C@]13CCN(CC4CCC4)[C@H](C2)[C@]1(O)CC[C@H](O)C3 |  |  |  |  |  | Imax [9]: 36%
C[N+]1(CC2CC2)CC[C@]23c4c5ccc(C(N)=O)c4O[C@H]2C(=O)CC[C@@]3(O)[C@H]1C5 (stereo partly specified) |  | 37 | > 10000 |  |  | 
